Assay results taken from US5866570A, “Treatment of vascular leakage and related syndrome such as septic shock by administration of metalloproteinase inhibitors” (Wisconsin Alumni Research Foundation, priority 1994, dated 1999).
Values after ≈ are worked out from the molar mass of the structure shown. Values joined by “and” are separate entries in the source; they are usually repeats but may differ in a detail not shown here. Equal entries are not always repeated. Where two headings read alike, the source gives them in different places. Blank lines part the entries; values can stand above or below the compound they belong to.

Key:
mouse-embryo fibroblasts = conditions: cited from earlier work
Lewis lung LL carcinoma = conditions: cited from earlier work
mouse L cell = conditions: l cells; read-out: ID50 inhibition of colony formation; cited from earlier work
[1] = at 25° C.; cited from earlier work
[2] = system: LS-MET-5 human colon carcinoma cells; experiment: LS-MET-5 i.v. human colon carcinoma metastasis model in nude mice; format: in vivo
Protocol: This example evaluates the effect of probimane on the survival of mice which have been injected with LS-MET-5 human colon carcinoma cells. In particular, probimane was given at 26 mg/kg in CMC, 1 intraperitoneal dose/day starting 1 day prior to intravenous injection of 1 million LS-MET-5 human colon carcinoma cells, at either 3 or 5 doses per week. During the first week the treated mice experienced a small weight drop and the dosage was decreased to 10.4 mg/kg. The control mice received CMC only at 10 μl/g.
Dose and Schedule--was suspended in sterile 1% CMC (carboxymethyl cellulose) […] by sonication in a water bath. […] Mice received drug 24 hours prior to injection of cells and each mouse received one dose/day i.p. for 5 consecutive days with 2 days of recovery or 3 consecutive days with 4 days of recovery. Treatment continued until mouse death or sacrifice.
LS-MET-5--human colon carcinoma metastatic variant cell line was developed at Oncologix, Inc. The cells are maintained in culture in DMEM+10% FBS and are dissociated for injection with trypsin/versine. The cells are resuspended in HBSS and 1 million cells injected in 100 μl into the lateral tail vein of the mouse.
Mice--HSD nu/nu female mice 6 weeks old (18-22 g) are weighed, tagged with a metal ear clip, and radomized for treatment or control groups. Mice are weighed daily and the dose of drug or vehicle is calculated.
Superficial metastases in the regional lymph nodes, dorsal thoracic brown fact pad, thigh muscle and on the rib cage begin appearing around day 22. Tumor growth is rapid with small metastases quickly coalescing to form a solid collar of metastases around the neck region of the mouse.
Although we have improved the incidence of mice with metastases by eliminating mice with less than perfect initial i.v. injections, we are still only 90% incidence. The experiment is terminated when the last mouse with evidence of metastases dies. The remaining mice are necropsied for presence of micro-metastases. We have found evidence that cells were indeed injected iv.

[3] = target: T1, recombinant human 72 kD type IV collagenase (Oncologix), APMA activated (Homo sapiens, UniProt P08253); experiment: gelatinase assay, Example 11; format: biochemical; conditions: 10 ng enzyme, 2 hours preincubation at 37° C., 20 min assay, 3H collagen substrate; read-out: IC50 for inhibition of the 72 kD collagenase type IV
T1 construct: purchased Oncologix
T1 sequence (P08253 110-660): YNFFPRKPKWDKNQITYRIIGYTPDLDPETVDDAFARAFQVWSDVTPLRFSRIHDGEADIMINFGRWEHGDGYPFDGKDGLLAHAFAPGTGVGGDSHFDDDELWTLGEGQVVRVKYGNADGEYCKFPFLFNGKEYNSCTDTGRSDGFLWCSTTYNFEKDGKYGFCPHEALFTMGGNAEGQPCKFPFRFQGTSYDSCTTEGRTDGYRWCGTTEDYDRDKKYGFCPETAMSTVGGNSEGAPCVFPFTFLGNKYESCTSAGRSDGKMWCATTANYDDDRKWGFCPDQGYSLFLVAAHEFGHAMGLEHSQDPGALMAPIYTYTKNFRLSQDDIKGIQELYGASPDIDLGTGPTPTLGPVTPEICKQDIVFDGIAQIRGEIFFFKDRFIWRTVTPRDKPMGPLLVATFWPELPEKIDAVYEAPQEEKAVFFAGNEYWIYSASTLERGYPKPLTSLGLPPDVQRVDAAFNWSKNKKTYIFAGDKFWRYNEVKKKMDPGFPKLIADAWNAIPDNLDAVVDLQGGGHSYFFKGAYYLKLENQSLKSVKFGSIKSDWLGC
Protocol: NET-660 Collagen (Rat Type I), N-[Propionate-2-3-^3 H] Propionylated (NEN Dupont) with a specific activity of 0.4 mCi/mg, rat type I Collagen (Sigma), P-aminophenylmercuric acetate, APMA (Sigma), recombinant human 72 kD type IV collagenase (Oncologix) with a specific activity of at least 1000 μg collagen digested/hour/μg enzyme, collagenase buffer (50 mM Tris-HCl, 5 mM CaCl2, 200 mM NaCl, 0.02% Brij-35, pH 7.6), bovine serum albumin (BSA), 250 mM EDTA, and 10% TCA+0.7% tannic acid. The substrate is prepared by mixing the ^3 H collagen with the cold collagen at a 2/3 ratio and diluting in the collagenase buffer. The final assay concentration of the ^3 H collagen is 1% or between 20,000 to 40,000 cpm. Inhibitors are prepared just prior to use by dissolving in DMSO (final assay concentration<1%) or collagenase buffer.
The 72 kD collagenase enzyme is activated with 0.5 mM APMA for 30 min. at 37° C. and 10 ng of enzyme per assay is used. Inhibitors are preincubated with activated enzyme for 2 hours at 37° C. in collagenase buffer. Substrate is then added to enzyme inhibitor mix and the assay is run for 20 min at 37° C. […] Undigested substrate is precipitated with the TCA/tannic acid solution and soluble counts are determined in a scintillation counter.

S180 tumors = conditions: therapeutic index in vivo; cited from earlier work
[4] = postamputation schedule LL model

Structure (SMILES): O=C1CN(CCCN2CC(=O)NC(=O)C2)CC(=O)N1 [ICRF-161]
IC50, inhibition of [3H]thymidine incorporation (mouse-embryo fibroblasts): inactive

Structure (SMILES): O=C1CN2C[C@@H]3C(=O)N(CN4CCOCC4)C(=O)CN3C[C@@H]2C(=O)N1CN1CCOCC1 (relative stereo) [morpholinomethyl derivative of cis-23]
antimetastatic effect (Lewis lung LL carcinoma; implanted LL carcinoma): inhibits metastasis

Structure (SMILES): O=C1CN2C[C@@H]3C(=O)NC(=O)CN3C[C@@H]2C(=O)N1 (relative stereo) [Compound 23]
antimetastatic effect (Lewis lung LL carcinoma; implanted LL carcinoma): no antimetastatic effects
antimetastatic effect (Lewis lung LL carcinoma; implanted LL carcinoma, listed as cis-23): does not exhibit any appreciable antimetastatic effect

Structure (SMILES): CCC(CN1CC(=O)NC(=O)C1)N1CC(=O)NC(=O)C1 (centres unmarked) [ICRF-192]
IC50 (mouse L cell): 720 µM

Structure (SMILES): O=C1CN2CCN3CC(=O)N(CN4CCOCC4)C(=O)[C@H]3[C@H]2C(=O)N1CN1CCOCC1
antimetastatic effect (Lewis lung LL carcinoma; [4]): most effective inhibitor of metastasis

Structure (SMILES): O=C1CN2C[C@H]3C(=O)NC(=O)CN3C[C@@H]2C(=O)N1 [Compound 22]
antimetastatic effect (Lewis lung LL carcinoma; implanted LL carcinoma): no antimetastatic effects

Structure (SMILES): CC(C(C)N1CC(=O)NC(=O)C1)N1CC(=O)NC(=O)C1 (centres unmarked) [ICRF-196]
IC50, inhibition of [3H]thymidine incorporation (mouse-embryo fibroblasts): inactive
IC50 (mouse L cell): 150 µM

Structure (SMILES): O=C1CN([C@@H]2C[C@@H](O)[C@@H](O)C[C@@H]2N2CC(=O)NC(=O)C2)CC(=O)N1 [Compound 89, (1β, 2β, 4α, 5α)-4,4'-(4,5-dihydroxy-1,2-cyclohexanediyl)bis(2,6-piperazinedione)]
solubility in water [1]: 29.3 mg/mL (≈ 86.1 mM)

Structure (SMILES): CC(CN1CC(=O)N(CN2CCOCC2)C(=O)C1)N1CC(=O)N(CN2CCOCC2)C(=O)C1 (centres unmarked) [Probimane, probimane]
toxicity (body weight) ([2]; 26 mg/Kg i.p. during the first week): weight drop indicated toxicity
Mean IST ([2]; 3×/Week): 19%
Mean Survival ([2]; 3×/Week): 52
Median IST ([2]; 3×/Week): 18%
Median Survival ([2]; 3×/Week): 47
Day of Death ([2]; 3×/Week, 26 then 10.4 mg/kg i.p., single mice): 43 and 44 and 45 and 46 and 52 and 62 and 63
Mean IST ([2]; 5×/Week): 16%
Mean Survival ([2]; 5×/Week): 50
Median IST ([2]; 5×/Week): 18%
Median Survival ([2]; 5×/Week): 47
Incidence of superficial metastases ([2]; Day 29, 3×/Week): 7/11
superficial Mets/Mouse ([2]; Day 29, 3×/Week): 1.1
Incidence of superficial metastases ([2]; Day 29, 5×/Week): 5/11
superficial Mets/Mouse ([2]; Day 29, 5×/Week): 1.2
Incidence of superficial metastases ([2]; Day 30, 3×/Week): 7/11
superficial Mets/Mouse ([2]; Day 30, 3×/Week): 1.9
Incidence of superficial metastases ([2]; Day 30, 5×/Week): 10/11
superficial Mets/Mouse ([2]; Day 30, 5×/Week): 1.2
Incidence of superficial metastases ([2]; Day 31, 3×/Week): 7/11
superficial Mets/Mouse ([2]; Day 31, 3×/Week): 1.9
Incidence of superficial metastases ([2]; Day 31, 5×/Week): 11/11
superficial Mets/Mouse ([2]; Day 31, 5×/Week): 1.1
Incidence of superficial metastases ([2]; Day 32, 3×/Week): 7/11
superficial Mets/Mouse ([2]; Day 32, 3×/Week): 1.9
Incidence of superficial metastases ([2]; Day 32, 5×/Week): 11/11
superficial Mets/Mouse ([2]; Day 32, 5×/Week): 1.8
condition of the treated mice ([2]; mouse, in vivo): pale and grayish in color, with scruffy coats, and were cold to the touch

IC50 [3]: 300 µM
Structure (SMILES): O=C(O)CN(CCN(CC(=O)O)CC(=O)O)CC(=O)O [EDTA, ethylenediaminetetraacetic acid]

Structure (SMILES): CC(C(C)N1CC(=O)NC(=O)C1)N1CC(=O)NC(=O)C1 (centres unmarked) [ICRF-193]
IC50, inhibition of [3H]thymidine incorporation (mouse-embryo fibroblasts): 0.035 µg/mL
calculated ratio of maximum tolerated dose to the dose required for 90% inhibition of S180 tumor growth (S180 tumors): 6.7
IC50 (mouse L cell): 0.09 µM

Structure (SMILES): O=C1CN2CCN3CC(=O)N(CN4CCOCC4)C(=O)[C@H]3[C@@H]2C(=O)N1CN1CCOCC1 (relative stereo)
antimetastatic effect (Lewis lung LL carcinoma; [4]): considerable antimetastatic activity

Structure (SMILES): O=C1CN(CCN2CC(=O)NC(=O)C2)CC(=O)N1 [ICRF-154]
IC50, inhibition of [3H]thymidine incorporation (mouse-embryo fibroblasts): 2.0 µg/mL
IC50 (mouse L cell): 7.3 µM
